Laboratory results reported in ChEMBL document CHEMBL1129992, “Arylamide inhibitors of HIV-1 integrase” (J Med Chem, 1997).
pIC50: −log10 of the molar value.

Assays:
[1] = molecular target: T1, Human immunodeficiency virus type 1 integrase (Human immunodeficiency virus 1, UniProt Q7ZJM1); assay: Inhibition of HIV-1 integrase-mediated strand transfer
[2] = molecular target: T1, Human immunodeficiency virus type 1 integrase; assay: Inhibition of HIV-1 integrase-mediated 3'-processing

T1 sequence (Q7ZJM1 whole entry): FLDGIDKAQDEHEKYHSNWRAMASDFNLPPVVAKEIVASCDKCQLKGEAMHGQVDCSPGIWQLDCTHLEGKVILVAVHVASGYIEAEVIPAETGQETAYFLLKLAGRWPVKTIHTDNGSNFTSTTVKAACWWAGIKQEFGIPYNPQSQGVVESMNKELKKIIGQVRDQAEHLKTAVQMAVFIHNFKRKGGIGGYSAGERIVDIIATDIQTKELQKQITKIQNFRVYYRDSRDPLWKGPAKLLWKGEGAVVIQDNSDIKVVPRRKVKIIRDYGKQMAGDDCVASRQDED

Row | SMILES | pIC50 [1] | pIC50 [2]
1 | O=C(CCc1ccc(O)cc1)NCCc1ccc(O)cc1 | – | < 3.46
2 | O=C(NCCCNC(=O)c1ccc2c(O)c(O)ccc2c1)c1ccc2c(O)c(O)ccc2c1 | 6.96 | 6.64
3 | O=C(CCc1ccc(O)c(O)c1)NCCc1cc(O)cc(O)c1 | – | < 3.46
4 | O=C(CCc1ccc(O)cc1)NCCc1cccc(O)c1 | – | < 3.46
5 | O=C(NCCCNC(=O)c1ccc2cc(O)c(O)cc2c1)c1ccc2cc(O)c(O)cc2c1 | 6.09 | 6.01
6 | O=C(CCc1cc(O)cc(O)c1)NCCc1cc(O)cc(O)c1 | – | < 3.46
7 | O=C(CCc1ccc(O)cc1)NCCCNC(=O)CCc1ccc(O)cc1 | < 3.70 | < 3.70
8 | O=C(CCc1cccc(O)c1)NCCc1ccc(O)cc1 | – | < 3.46
9 | O=C(CCc1cccc(O)c1)NCCc1cccc(O)c1 | – | < 3.46
10 | O=C(CCc1cccc(O)c1)NCCCNC(=O)CCc1cccc(O)c1 | < 3.70 | < 3.70
11 | O=C(CCc1cc(O)cc(O)c1)NCCc1ccc(O)c(O)c1 | – | < 3.46

Results, then the molecule that gave them:

Row | pIC50 [1] | pIC50 [2] | SMILES
12 | < 3.70 | < 3.70 | COc1ccc2cc(C(=O)NCCCNC(=O)c3ccc4cc(OC)ccc4c3)ccc2c1
13 | < 3.70 | < 3.70 | O=C(CCc1cc(O)cc(O)c1)NCCCNC(=O)CCc1cc(O)cc(O)c1
14 | < 3.70 | < 3.70 | COc1cc2ccc(C(=O)NCCCNC(=O)c3ccc4cc(OC)c(OC)cc4c3)cc2cc1OC
15 | – | 4.48 | O=C(CCc1ccc(O)c(O)c1)NCCc1ccc(O)c(O)c1
16 | 4.28 | 4.23 | COC(=O)c1ccc2c(O)c(O)ccc2c1
17 | 4.20 | 4.27 | O=C(O)c1ccc2c(O)c(O)ccc2c1
18 | 5.33 | 5.27 | O=C(O)c1ccc2cc(O)c(O)cc2c1
19 | < 3.70 | < 3.70 | COC(=O)c1ccc2cc(O)ccc2c1
20 | < 3.70 | < 3.70 | COc1ccc2cc(C(=O)NCCCNC(=O)c3ccc4c(OC)c(OC)ccc4c3)ccc2c1OC
21 | < 3.70 | < 3.70 | COC(=O)c1ccc2cc(O)c(O)cc2c1
22 | < 3.70 | < 3.70 | O=C(NCCCNC(=O)c1ccc2cc(O)ccc2c1)c1ccc2cc(O)ccc2c1
23 | 3.76 | 3.76 | O=C(O)c1ccc2cc(O)ccc2c1
